Assay results as given in the NIST ThermoML archive (doi:10.1021/je060271a).

Conditions: 303.15 K, Liquid, Vibrating tube method

CCCCC(=O)OCC(COC(=O)CCCC)(COC(=O)CCCC)COC(=O)CCCC [pentaerythritol tetrapentanoate]
Conditions | mass density [kg/m3]
13763 kPa | 1019.6
13796 kPa | 1019.5
13829 kPa | 1019.6
13863 kPa | 1019.6
13902 kPa | 1019.7
13936 kPa | 1019.7
13971 kPa | 1019.7
14011 kPa | 1019.6
14045 kPa | 1019.6
14080 kPa | 1019.8
14120 kPa | 1019.8
14154 kPa | 1019.7
14189 kPa | 1019.8
14231 kPa | 1019.8
14265 kPa | 1019.9
14300 kPa | 1019.8
14344 kPa | 1019.8
14378 kPa | 1020
14414 kPa | 1019.9
14458 kPa | 1019.9
14494 kPa | 1020
14532 kPa | 1020
14574 kPa | 1020.1
14612 kPa | 1020.1
14649 kPa | 1020.1
14687 kPa | 1019.9
14731 kPa | 1020.2
14769 kPa | 1020.1
14808 kPa | 1020.2
14853 kPa | 1020.2
14892 kPa | 1020.2
14933 kPa | 1020.3
14974 kPa | 1020.3
15014 kPa | 1020.2
15058 kPa | 1020.3
15098 kPa | 1020.3
15146 kPa | 1020.4
15187 kPa | 1020.4
15226 kPa | 1020.4
15275 kPa | 1020.5
15316 kPa | 1020.3
15358 kPa | 1020.6
15400 kPa | 1020.5
15450 kPa | 1020.5
15495 kPa | 1020.6
15540 kPa | 1020.6
15586 kPa | 1020.7
15638 kPa | 1020.7
15671 kPa | 1020.6
15699 kPa | 1020.6
15733 kPa | 1020.9
15763 kPa | 1020.8
15791 kPa | 1020.7
15826 kPa | 1020.8
15856 kPa | 1020.8
15887 kPa | 1020.7
15921 kPa | 1020.8
15952 kPa | 1020.9
15981 kPa | 1021
16011 kPa | 1020.9
16047 kPa | 1020.9
16078 kPa | 1021.1
16109 kPa | 1021
16146 kPa | 1020.9
16177 kPa | 1021
16215 kPa | 1021
16248 kPa | 1021.1
16278 kPa | 1021
16303 kPa | 1021.1
16331 kPa | 1021.1
16354 kPa | 1021.1
16378 kPa | 1021
16406 kPa | 1021.2
16430 kPa | 1021
16454 kPa | 1021.3
16479 kPa | 1021.2
16508 kPa | 1021.2
16532 kPa | 1021.2
16556 kPa | 1021.2
16585 kPa | 1021.3
16610 kPa | 1021.3
16633 kPa | 1021.2
16663 kPa | 1021.4
16688 kPa | 1021.3
16712 kPa | 1021.3
16737 kPa | 1021.4
16765 kPa | 1021.3
16791 kPa | 1021.4
16815 kPa | 1021.3
16845 kPa | 1021.5
16869 kPa | 1021.5
16898 kPa | 1021.4
16924 kPa | 1021.4
16949 kPa | 1021.4
16980 kPa | 1021.5
17005 kPa | 1021.5
17032 kPa | 1021.6
17057 kPa | 1021.4
17088 kPa | 1021.6
17112 kPa | 1021.6
17144 kPa | 1021.6
17170 kPa | 1021.5
17196 kPa | 1021.7
17222 kPa | 1021.6
17253 kPa | 1021.6
17279 kPa | 1021.5
17310 kPa | 1021.7
17337 kPa | 1021.7
17364 kPa | 1021.7
17396 kPa | 1021.8
17422 kPa | 1021.8
17449 kPa | 1021.8
17476 kPa | 1021.8
17509 kPa | 1021.7
17535 kPa | 1021.7
17563 kPa | 1021.8
17596 kPa | 1021.8
17623 kPa | 1021.8
17656 kPa | 1022
17684 kPa | 1022
17713 kPa | 1021.9
17742 kPa | 1021.9
17771 kPa | 1021.9
17800 kPa | 1021.9
17834 kPa | 1021.9
17862 kPa | 1022
17892 kPa | 1022
17920 kPa | 1022
17954 kPa | 1022.1
17983 kPa | 1022.1
18012 kPa | 1022.1
18047 kPa | 1022.2
18076 kPa | 1022.1
18105 kPa | 1022.1
18142 kPa | 1022.1
18171 kPa | 1022.2
18200 kPa | 1022.2
18230 kPa | 1022.1
18265 kPa | 1022.3
18295 kPa | 1022.3
18325 kPa | 1022.2
18360 kPa | 1022.2
18390 kPa | 1022.2
18421 kPa | 1022.4
18457 kPa | 1022.4
18488 kPa | 1022.2
18520 kPa | 1022.4
18551 kPa | 1022.4
18587 kPa | 1022.4
18618 kPa | 1022.4
18650 kPa | 1022.6
18687 kPa | 1022.5
18717 kPa | 1022.5
18749 kPa | 1022.7
18787 kPa | 1022.6
18819 kPa | 1022.6
18850 kPa | 1022.5
18887 kPa | 1022.5
18919 kPa | 1022.7
18951 kPa | 1022.6
18990 kPa | 1022.6
19023 kPa | 1022.8
19056 kPa | 1022.6
19094 kPa | 1022.8
19127 kPa | 1022.7
19159 kPa | 1022.9
19198 kPa | 1022.9
19232 kPa | 1022.8
19265 kPa | 1022.8
19304 kPa | 1022.8
19338 kPa | 1022.9
19372 kPa | 1023
19412 kPa | 1022.9
19446 kPa | 1022.9
19480 kPa | 1023
19515 kPa | 1023
19556 kPa | 1023
19590 kPa | 1023.1
19630 kPa | 1023
19702 kPa | 1023.1
19736 kPa | 1023.1
19778 kPa | 1023.2
19813 kPa | 1023.2
19856 kPa | 1023.2
19893 kPa | 1023.1
19930 kPa | 1023.2
19968 kPa | 1023.2
20013 kPa | 1023.3
20051 kPa | 1023.4
20090 kPa | 1023.2
20134 kPa | 1023.3
20161 kPa | 1023.4
20186 kPa | 1023.3
20215 kPa | 1023.3
20240 kPa | 1023.4
20265 kPa | 1023.5
20290 kPa | 1023.6
20321 kPa | 1023.4
20346 kPa | 1023.4
20370 kPa | 1023.5
20396 kPa | 1023.5
20425 kPa | 1023.6
20451 kPa | 1023.5
20481 kPa | 1023.6
20506 kPa | 1023.5
20532 kPa | 1023.6
20561 kPa | 1023.6
20587 kPa | 1023.6
20613 kPa | 1023.7
20644 kPa | 1023.6
20671 kPa | 1023.6
20697 kPa | 1023.6
20723 kPa | 1023.7
20754 kPa | 1023.6
20780 kPa | 1023.7
20806 kPa | 1023.8
20837 kPa | 1023.8
20864 kPa | 1023.9
20890 kPa | 1023.7
20920 kPa | 1023.8
20947 kPa | 1023.7
20974 kPa | 1023.8
21007 kPa | 1023.7
21030 kPa | 1023.9
21062 kPa | 1023.9
21089 kPa | 1023.8
21122 kPa | 1023.8
21149 kPa | 1023.9
21176 kPa | 1024
21208 kPa | 1024
21236 kPa | 1024
21263 kPa | 1023.8
21291 kPa | 1024
21324 kPa | 1024.1
21351 kPa | 1024.1
21384 kPa | 1024.1
21412 kPa | 1024
21440 kPa | 1024.1
21472 kPa | 1024.1
21500 kPa | 1024.2
21528 kPa | 1024.1
21557 kPa | 1024.1
21593 kPa | 1024.2
21622 kPa | 1024.2
21658 kPa | 1024.3
21688 kPa | 1024.2
21718 kPa | 1024.4
21754 kPa | 1024.3
21784 kPa | 1024.2
21814 kPa | 1024.3
21844 kPa | 1024.4
21881 kPa | 1024.2
21911 kPa | 1024.4
21942 kPa | 1024.4
21979 kPa | 1024.4
22009 kPa | 1024.5
22046 kPa | 1024.4
22077 kPa | 1024.5
22109 kPa | 1024.4
22140 kPa | 1024.5
22178 kPa | 1024.5
22210 kPa | 1024.6
22242 kPa | 1024.6
22279 kPa | 1024.6
22311 kPa | 1024.6
22343 kPa | 1024.7
22375 kPa | 1024.6
22414 kPa | 1024.6
22446 kPa | 1024.6
22478 kPa | 1024.6
22517 kPa | 1024.7
22550 kPa | 1024.8
22583 kPa | 1024.7
22622 kPa | 1024.8
22656 kPa | 1024.7
22688 kPa | 1024.7
22722 kPa | 1024.8
22761 kPa | 1024.8
22794 kPa | 1024.9
22828 kPa | 1024.9
22868 kPa | 1024.9
22901 kPa | 1024.9
22942 kPa | 1024.9
22975 kPa | 1024.9
23009 kPa | 1024.9
23043 kPa | 1025.1
23084 kPa | 1025
23119 kPa | 1025.1
23154 kPa | 1025
23195 kPa | 1025
23230 kPa | 1025.1
23265 kPa | 1025.2
23307 kPa | 1025.2
23342 kPa | 1025.2
23378 kPa | 1025.2
23413 kPa | 1025.2
23456 kPa | 1025.2
23492 kPa | 1025.3
23534 kPa | 1025.2
23572 kPa | 1025.1
23609 kPa | 1025.3
23646 kPa | 1025.4
23680 kPa | 1025.3
23726 kPa | 1025.4
23761 kPa | 1025.5
23798 kPa | 1025.6
23843 kPa | 1025.5
23878 kPa | 1025.4
23926 kPa | 1025.5
23961 kPa | 1025.6
23996 kPa | 1025.5
24033 kPa | 1025.7
24084 kPa | 1025.5
24123 kPa | 1025.6
24162 kPa | 1025.7
24202 kPa | 1025.6
24250 kPa | 1025.7
24285 kPa | 1025.8
24316 kPa | 1025.7
24353 kPa | 1025.8
24383 kPa | 1025.8
